In PMC7906330 (PLoS ONE, 2021):

How the values were obtained:
[1] = pH 7
[2] = test system: trypsin; experiment: in vitro; details: isolated enzyme trypsin, pH 8.5

| SMILES | α-helical structure / structural stability by CD [1] | half-life [2] [min] |
| --- | --- | --- |
| CC[C@H](C)[C@H](NC(=O)[C@H](CC(C)C)NC(=O)[C@H](Cc1ccccc1)NC(=O)[C@H](CCC(N)=O)NC(=O)[C@H](CC(C)C)NC(=O)[C@H](CCCCN)NC(=O)CNC(=O)[C@H](Cc1ccc(O)cc1)NC(=O)[C@@H]1CCCN1C(=O)[C@@H](NC(=O)[C@@H]1CCCN1C(=O)[C@H](Cc1ccc(O)cc1)NC(=O)CNC(=O)[C@H](CCCCN)NC(=O)[C@H](Cc1c[nH]c2ccccc12)NC(=O)[C@@H]1CCCN1C(=O)CN)[C@@H](C)CC)C(=O)N[C@@H](CCCCN)C(=O)N[C@@H](CCCCN)C(=O)N[C@@H](CC(C)C)C(=O)N[C@@H](CCCCN)C(=O)N[C@@H](CCC(N)=O)C(=O)N[C@@H](CC(C)C)C(=O)N[C@@H](CCCCN)C(=O)N[C@H](C(N)=O)C(C)C [Peptide M49dN] | no α-helical structure | 5 ± 0.3 |
| CC[C@H](C)[C@H](NC(=O)[C@H](CC(C)C)NC(=O)[C@H](Cc1ccccc1)NC(=O)[C@H](CCC(N)=O)NC(=O)[C@H](CC(C)C)NC(=O)[C@H](CCCCN)NC(=O)CNC(=O)[C@H](Cc1ccc(O)cc1)NC(=O)[C@@H]1CCCN1C(=O)[C@@H](NC(=O)[C@@H]1CCCN1C(=O)[C@H](Cc1ccc(O)cc1)NC(=O)CNC(=O)[C@H](CCCCN)NC(=O)[C@H](Cc1c[nH]c2ccccc12)NC(=O)[C@@H]1CCCN1C(=O)CNC(=O)[C@H](CCC(=O)O)NC(=O)[C@H](CC(C)C)NC(=O)[C@H](C)NC(=O)[C@H](C)NC(=O)[C@H](CC(C)C)NC(=O)[C@H](CCC(=O)O)NC(=O)[C@H](C)NC(=O)[C@H](CCC(=O)O)NC(=O)[C@H](CC(C)C)NC(=O)[C@H](C)NC(=O)[C@H](C)NC(=O)[C@H](CC(C)C)NC(=O)[C@H](CCC(=O)O)NC(=O)[C@H](C)N)[C@@H](C)CC)C(=O)N[C@@H](CCCCN)C(=O)N[C@@H](CCCCN)C(=O)N[C@@H](CC(C)C)C(=O)N[C@@H](CCCCN)C(=O)N[C@@H](CCC(N)=O)C(=O)N[C@@H](CC(C)C)C(=O)N[C@@H](CCCCN)C(=O)N[C@H](C(N)=O)C(C)C [Peptide M49dS] | mostly denatured at 80 °C | 39 ± 2 |
